According to ChEMBL document CHEMBL4359904, “Structural tuning of acridones for developing anticancer agents targeting dihydrofolate reductase” (Bioorg Med Chem Lett, 2019):
The source made the active and inactive calls. The rule behind the calls is not given here.

What was measured:
A549 = experiment: Growth inhibition of human A549/ATCC cells incubated for 48 hrs by sulforhodamine B assay; assay type: functional; conditions: A549, 48 h; for CC50: read-out: pLC50 (the source's name) (converted); for TGI: read-out: pTGI (converted)
C6 [1] = experiment: Induction of morphological changes in rat C6 cells assessed as apperance of differentiated morphology with fine and elongated processes after 24 hrs by inverted microscopy analysis; assay type: functional, cell-based
SF-539 = experiment: Growth inhibition of human SF539 cells incubated for 48 hrs by sulforhodamine B assay; assay type: functional; conditions: SF-539, 48 h; for CC50: read-out: pLC50 (the source's name) (converted); for TGI: read-out: pTGI (converted)
C6 [2] = experiment: Cell cycle arrest in rat C6 cells assessed as decrease in cell population at S phase measured after 24 hrs by propidium iodide staining based flow cytometry analysis; assay type: functional
MCF7 [3] = experiment: Growth inhibition of human MCF7 cells at 10^-5 M incubated for 48 hrs by sulforhodamine B assay relative to control; assay type: functional; conditions: MCF7, 48 h, read-out: GI
UO-31 = experiment: Growth inhibition of human UO31 cells incubated for 48 hrs by sulforhodamine B assay; assay type: functional; conditions: UO-31, 48 h; for TGI: read-out: pTGI (converted)
HT-29 [4] = experiment: Growth inhibition of human HT-29 cells at 10^-5 M incubated for 48 hrs by sulforhodamine B assay relative to control; assay type: functional; conditions: HT-29, 48 h, read-out: GI
[5] = system: Panel NCI-60 (60 carcinoma cell lines); experiment: Growth inhibition of human NCI60 cells at incubated for 48 hrs by sulforhodamine B assay; assay type: functional; conditions: for CC50: read-out: LC50 (the source's name)
HCT-116 = experiment: Growth inhibition of human HCT116 cells incubated for 48 hrs by sulforhodamine B assay; assay type: functional; conditions: HCT-116, 48 h; for CC50: read-out: pLC50 (the source's name) (converted); for TGI: read-out: pTGI (converted)
HOP-92 = experiment: Growth inhibition of human HOP92 cells incubated for 48 hrs by sulforhodamine B assay; assay type: functional; conditions: HOP-92, 48 h; for CC50: read-out: pLC50 (the source's name) (converted); for TGI: read-out: pTGI (converted)
SNB-19 = experiment: Growth inhibition of human SNB19 cells incubated for 48 hrs by sulforhodamine B assay; assay type: functional; conditions: SNB-19, 48 h; for CC50: read-out: pLC50 (the source's name) (converted); for TGI: read-out: pTGI (converted)
[6] = target: T1, Dihydrofolate reductase (Homo sapiens) (UniProt P00374); experiment: Inhibition of human dihydrofolate reductase assessed as association constant by UV-Vis spectra based Benesi Hilebrand equation analysis
T1 sequence (whole entry): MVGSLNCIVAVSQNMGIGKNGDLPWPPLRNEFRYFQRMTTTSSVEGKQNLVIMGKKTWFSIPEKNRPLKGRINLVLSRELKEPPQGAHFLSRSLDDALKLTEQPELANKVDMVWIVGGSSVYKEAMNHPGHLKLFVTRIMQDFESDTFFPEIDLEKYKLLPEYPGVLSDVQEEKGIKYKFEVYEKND

SK-OV-3 = experiment: Growth inhibition of human SKOV3 cells incubated for 48 hrs by sulforhodamine B assay; assay type: functional; conditions: SK-OV-3, 48 h; for CC50: read-out: pLC50 (the source's name) (converted)
DU-145 = experiment: Growth inhibition of human DU145 cells incubated for 48 hrs by sulforhodamine B assay; assay type: functional; conditions: DU-145, 48 h; for CC50: read-out: pLC50 (the source's name) (converted); for TGI: read-out: pTGI (converted)
MCF7 [7] = experiment: Growth inhibition of human MCF7 cells incubated for 48 hrs by sulforhodamine B assay; assay type: functional; conditions: MCF7, 48 h; for TGI: read-out: pTGI (converted)
[8] = target: T1, Dihydrofolate reductase (Homo sapiens); experiment: Competitive inhibition of human dihydrofolate reductase at 30 uM using varying levels of dihydrofolic acid as substrate preincubated for 1 hr in presence of NADPH followed by substrate addition by Line weaver-Burk based double reciprocal plot analysis
HCT-15 = experiment: Growth inhibition of human HCT15 cells incubated for 48 hrs by sulforhodamine B assay; assay type: functional; conditions: HCT-15, 48 h; for CC50: read-out: pLC50 (the source's name) (converted); for TGI: read-out: pTGI (converted)
NCI-H322M = experiment: Growth inhibition of human NCI-H322M cells incubated for 48 hrs by sulforhodamine B assay; assay type: functional; conditions: for CC50: read-out: pLC50 (the source's name) (converted); for TGI: read-out: pTGI (converted)
HT-29 [9] = experiment: Growth inhibition of human HT-29 cells incubated for 48 hrs by sulforhodamine B assay; assay type: functional; conditions: HT-29, 48 h; for CC50: read-out: pLC50 (the source's name) (converted); for TGI: read-out: pTGI (converted)
OVCAR-5 = experiment: Growth inhibition of human OVCAR5 cells at 10^-5 M incubated for 48 hrs by sulforhodamine B assay relative to control; assay type: functional; conditions: OVCAR-5, 48 h, read-out: GI
PC-3 = experiment: Growth inhibition of human PC3 cells incubated for 48 hrs by sulforhodamine B assay; assay type: functional; conditions: PC-3, 48 h; for CC50: read-out: pLC50 (the source's name) (converted); for TGI: read-out: pTGI (converted)
SK-MEL-5 = experiment: Growth inhibition of human SK-MEL-5 cells incubated for 48 hrs by sulforhodamine B assay; assay type: functional; conditions: SK-MEL-5, 48 h; for CC50: read-out: pLC50 (the source's name) (converted); for TGI: read-out: pTGI (converted)
SR = experiment: Growth inhibition of human SR cells at 10^-5 M incubated for 48 hrs by sulforhodamine B assay relative to control; assay type: functional; conditions: read-out: GI
OVCAR-8 = experiment: Growth inhibition of human OVCAR8 cells incubated for 48 hrs by sulforhodamine B assay; assay type: functional; conditions: OVCAR-8, 48 h; for CC50: read-out: pLC50 (the source's name) (converted); for TGI: read-out: pTGI (converted)
BT-549 = experiment: Growth inhibition of human BT549 cells incubated for 48 hrs by sulforhodamine B assay; assay type: functional; conditions: BT-549, 48 h; for CC50: read-out: pLC50 (the source's name) (converted); for TGI: read-out: pTGI (converted)
SNB-75 = experiment: Growth inhibition of human SNB75 cells incubated for 48 hrs by sulforhodamine B assay; assay type: functional; conditions: SNB-75, 48 h; for CC50: read-out: pLC50 (the source's name) (converted); for TGI: read-out: pTGI (converted)
C6 [10] = experiment: Induction of morphological changes in rat C6 cells assessed as cellular senescence by measuring cell rounding with distorted morphology after 24 hrs by inverted microscopy analysis; assay type: functional, cell-based
[11] = read-out: pLC50 (the source's name) (converted)
[12] = read-out: LC50 (the source's name)

O=C(OC[C@@H]1CO1)c1cccc2c(=O)c3ccccc3[nH]c12
GI50 (A549): 2450 nM
CC50 (A549): > 100000 nM
TGI (A549): 7240 nM
Activity (C6 [1]): Active
GI50 (SF-539): 1780 nM
CC50 (SF-539): 7760 nM
TGI (SF-539): 3720 nM
inhibition (C6 [2]): Active
inhibition of growth at 10 µM (MCF7 [3]): 100%
GI50 (UO-31): 1740 nM
CC50 (UO-31; [11]): 77600 nM
TGI (UO-31): 5010 nM
inhibition of growth at 10 µM (HT-29 [4]): 100%
GI50 [5]: 300 nM
TGI [5]: 1200 nM
CC50 [5]: 38000 nM
GI50 (HCT-116): 1120 nM
CC50 (HCT-116): > 100000 nM
TGI (HCT-116): 8710 nM
GI50 (HOP-92): 2040 nM
CC50 (HOP-92): > 100000 nM
TGI (HOP-92): 5250 nM
GI50 (SNB-19): 2290 nM
CC50 (SNB-19): 28200 nM
TGI (SNB-19): 7760 nM
Ka [6]: 1.6 ×10⁴ /M
GI50 (SK-OV-3): 2630 nM
CC50 (SK-OV-3): > 100000 nM
TGI (SK-OV-3; read-out: pTGI (converted)): 7410 nM
GI50 (DU-145): 1350 nM
CC50 (DU-145): > 100000 nM
TGI (DU-145): 5890 nM
GI50 (MCF7 [7]; read-out: GI50): 380 nM
CC50 (MCF7 [7]; [12]): > 100000 nM
GI50 (MCF7 [7]; read-out: pGI50 (converted)): 389 nM
CC50 (MCF7 [7]; [11]): > 100000 nM
TGI (MCF7 [7]): 2950 nM
inhibition [8]: Active
GI50 (HCT-15): 1660 nM
CC50 (HCT-15): > 100000 nM
TGI (HCT-15): 5250 nM
GI50 (NCI-H322M): 2190 nM
CC50 (NCI-H322M): > 100000 nM
TGI (NCI-H322M): 5890 nM
GI50 (HT-29 [9]): 2240 nM
CC50 (HT-29 [9]): > 100000 nM
TGI (HT-29 [9]): 7940 nM
inhibition of growth at 10 µM (OVCAR-5): 100%
GI50 (PC-3): 2040 nM
CC50 (PC-3): > 100000 nM
TGI (PC-3): 8320 nM
GI50 (SK-MEL-5): 1510 nM
CC50 (SK-MEL-5): 5500 nM
TGI (SK-MEL-5): 2880 nM
inhibition of growth at 10 µM (SR): 90%
GI50 (OVCAR-8): 1260 nM
CC50 (OVCAR-8): 41700 nM
TGI (OVCAR-8): 5370 nM
GI50 (BT-549): 1910 nM
CC50 (BT-549): > 100000 nM
TGI (BT-549): 6030 nM
GI50 (SNB-75): 1510 nM
CC50 (SNB-75): 7940 nM
TGI (SNB-75): 3470 nM

O=c1c2ccccc2n(CC2CO2)c2ccccc12 (racemic)
GI50 (A549): 479 nM
CC50 (A549): > 100000 nM
TGI (A549): 3800 nM
GI50 (SF-539): 347 nM
CC50 (SF-539): > 100000 nM
TGI (SF-539): 1780 nM
inhibition of growth at 10 µM (MCF7 [3]): 100%
GI50 (UO-31): 178 nM
TGI (UO-31): 407 nM
inhibition of growth at 10 µM (HT-29 [4]): 100%
GI50 [5]: 1600 nM
TGI [5]: 5600 nM
CC50 [5]: 44400 nM
GI50 (HCT-116): 126 nM
CC50 (HCT-116): > 100000 nM
TGI (HCT-116): 10000 nM
GI50 (HOP-92): 324 nM
CC50 (HOP-92): > 100000 nM
TGI (HOP-92): 3890 nM
GI50 (SNB-19): 490 nM
CC50 (SNB-19): > 100000 nM
TGI (SNB-19): 4370 nM
Ka [6]: 1.4 ×10⁴ /M
GI50 (SK-OV-3): 1410 nM
CC50 (SK-OV-3): > 100000 nM
GI50 (DU-145): 347 nM
CC50 (DU-145): > 100000 nM
TGI (DU-145): 1480 nM
GI50 (MCF7 [7]; read-out: GI50): 50 nM
CC50 (MCF7 [7]; [12]): > 100000 nM
GI50 (MCF7 [7]; read-out: pGI50 (converted)): 55 nM
CC50 (MCF7 [7]; [11]): > 100000 nM
TGI (MCF7 [7]): 741 nM
GI50 (HCT-15): 295 nM
CC50 (HCT-15): > 100000 nM
TGI (HCT-15): 4570 nM
GI50 (NCI-H322M): 2000 nM
CC50 (NCI-H322M): > 100000 nM
TGI (NCI-H322M): 7760 nM
GI50 (HT-29 [9]): 316 nM
CC50 (HT-29 [9]): 23400 nM
TGI (HT-29 [9]): 871 nM
inhibition of growth at 10 µM (OVCAR-5): 100%
GI50 (PC-3): 331 nM
CC50 (PC-3): > 100000 nM
TGI (PC-3): 4790 nM
GI50 (SK-MEL-5): 209 nM
CC50 (SK-MEL-5): 1120 nM
TGI (SK-MEL-5): 468 nM
inhibition of growth at 10 µM (SR): 91%
GI50 (OVCAR-8): 148 nM
CC50 (OVCAR-8): > 100000 nM
TGI (OVCAR-8): 1320 nM
GI50 (BT-549): 339 nM
CC50 (BT-549): 66100 nM
TGI (BT-549): 3160 nM
Activity (C6 [10]): Active
GI50 (SNB-75): 269 nM
CC50 (SNB-75): 6310 nM
TGI (SNB-75): 1860 nM
